The test system of the experiment is alpha-MyHC. Briefly: alpha-MyHC cytoblot process in neonatal rat ventricular myocytes (NRVM). Type of experiment: cell-based. The protocol:
In vitro activity of each compound is measured using the alpha-MyHC cytoblot process. Briefly, neonatal rat ventricular myocytes (NRVM) at 120,000 cells/ml in HyQ DME/High modified culture media supplemented with 10% charcoal/dextran treated FBS, 0.1% Nutridoma-SP, 1:100 MEM non-essential amino acids, 1:50 MEM amino acids solution w/o L-Gln, 1 mM sodium pyruvate and 1:100 P/S/G, are plated on gelatin coated sterile 384-well plates (Costar 3712) at 6,000 cells per well. Cells are incubated overnight at 37° C. in 5% CO2 100% humidity. Following overnight growth the media is changed to HyQ DME/High modified culture media supplemented with 0.3% Nutridoma-SP, 1:100 MEM non-essential amino acids, 1:50 MEM amino acids solution w/o L-Gln, 1 mM sodium pyruvate and 1:100 P/S/G. Cells are then dosed with serial dilutions of each compound in DMSO. Each concentration in the dose range is dosed in quadruplicate. Dosing is done in such a way so that the final DMSO concentration was 0.44%. Compound dilutions are 3-fold with the final top concentration of 10 uM. […] Following dosing, the cells are incubated for 72 hours at 37° C. in 5% CO2 100% humidity and then processed with the cytoblot method. Briefly, cell media is aspirated and cell monolayers washed with PBS and fixed with 100% methanol for 30 minutes. Fixed cells are then blocked with PBS, 0.05% Tween-20, 1% BSA, for 1 hour. Following blocking, cells are incubated with primary alpha-MyHC-specific antibody antibody (1:30 dilution of BA-G5 hybridoma conditioned media, ATCC HB276) for 1 hour. Following incubation with the primary antibody, cells are washed with PBS, 0.05% Tween-20, 1% BSA and incubated with secondary antibody (1:1000 dilution, goat-anti-mouse HRP, Southern Biotech, 1031-05) for 1 hour. Following incubation with the secondary antibody, wells are washed and incubated in SuperSignal, West Dura HRP-luminescence substrate for 30 seconds under shaking at room temperature. Luminescence is measured using a Packard Fusion plate reader. […] RLU values are converted into per cent fraction of low control and dose responses are fitted to a sigmoidal 4-parameter equation (XLFit, IDBS) where the EC50 and Max Plateau values were extracted. […] Max Plateau is the […] maximum value determined by the dose response fit.

The mark [1] stands for this setting: Table 2 (esters), NRVM, 72 hours, alpha-MyHC cytoblot.
Where [2] appears, read: Table 2 (esters), NRVM, 72 hours, maximum of dose response fit.
The mark [3] stands for this setting: Table 3 (amides), NRVM, 72 hours, alpha-MyHC cytoblot.
[4] abbreviates: Table 3 (amides), NRVM, 72 hours, maximum of dose response fit.
The mark [5] stands for this setting: Table 1, NRVM, 72 hours, alpha-MyHC cytoblot, mean ± spread.
The mark [6] stands for this setting: Table 1, NRVM, 72 hours, maximum of dose response fit, low control = vehicle only.

Read-outs that look alike come from different tables or passages of the source.

What is called EC50 is the concentration needed to bring the measured effect to its halfway point. Read a low EC50 as greater potency. The compound `CCC(=O)C1=C(CC)Nc2sc(C(=O)c3ccc(Cl)c(Cl)c3)c(N)c2C1c1ccccc1F` (racemic) [Compound 39, 1-[3-amino-2-(3,4-dichloro-benzoyl)-6-ethyl-4-(2-fluoro-phenyl)-4,7-dihydro-thieno[2,3b]pyridin-5-yl]-propan-1-one] had a concentration for a half-maximal effect (EC50) (Rattus norvegicus, Ventricular myocyte, Table 1, NRVM, 72 hours, alpha-MyHC cytoblot, mean ± spread) of 17.1 nM. The Emax (Rattus norvegicus, Ventricular myocyte, Table 1, NRVM, 72 hours, maximum of dose response fit, low control = vehicle only, read-out: Max Plateau) was 273 ± 37.3%. Under setting [1], `CCC1=C(C(=O)OC)C(c2ccnc(F)c2)c2c(sc(C(=O)c3cccc(Cl)c3)c2N)N1` (racemic) [Compound 175] came in with a half-maximal effective concentration (EC50) of 0.183 nM. Besides, the “Max Plateau” value under setting [2] is reported as 289.91 per cent fraction of low control.

The compound `COC(=O)C1=C(C2CC2)Nc2sc(C(=O)c3cccc(Cl)c3)c(N)c2C1c1ccnc(F)c1` (racemic) [Compound 176] had an EC50 under setting [1] of 42.1 nM. For the same compound, the “Max Plateau” value under setting [2] is 218.25 per cent fraction of low control.

Turning to `COC(=O)C1=C(C(C)C)Nc2sc(C(=O)c3cccc(C#N)c3)c(N)c2C1c1ccccc1F` (racemic) [Compound 177], the response under setting [1] was half-maximal at 796 nM (EC50). Besides, under setting [2], the “Max Plateau” value was 162.75 per cent fraction of low control.

`CCC1=C(C(=O)OCCOC)C(c2ccccc2F)c2c(sc(C(=O)c3cccc(C#N)c3)c2N)N1` (racemic) [Compound 178]: under setting [2], the “Max Plateau” value is reported as 258.67 ± 45.31 per cent fraction of low control. Same read-out and setting: the result for `CCC1=C(C(=O)OCCOC)C(c2ccnc(F)c2)c2c(sc(C(=O)c3cccc(C#N)c3)c2N)N1` (racemic) [Compound 192] reads 237.07 ± 13.03 per cent fraction of low control. With `CCOC(=O)C1=C(CC)Nc2sc(C(=O)c3ccc(F)c(CC(=O)OC)c3)c(N)c2C1c1ccccc1` (racemic) [Compound 194], it took 247 nM to reach a half-maximal effect under setting [1] (EC50). Moreover, the “Max Plateau” value under setting [2] is 188.67 per cent fraction of low control. For the compound `CCNC(=O)C1=C(C)Nc2sc(C(=O)c3ccc(Cl)c(Cl)c3)c(N)c2C1c1ccccc1` (racemic) [Compound 195], the response under setting [3] was half-maximal at 337000 nM (EC50). Further, the “Max Plateau” value under setting [4] is 126.67 ± 23.09 per cent fraction of low control. `CCCCNC(=O)C1=C(C)Nc2sc(C(=O)c3ccc(Cl)c(Cl)c3)c(N)c2C1c1ccccc1` (racemic) [Compound 196]: a half-maximal response under setting [3] (EC50) required 334000 nM. Moreover, the “Max Plateau” value under setting [4] is on record as 121.93 ± 25.12 per cent fraction of low control. `COCCOCN1C(C)=C(C(C)=O)C(c2ccccc2)c2c1sc(C(=O)c1ccccc1)c2N` (racemic) [Compound 209] showed an EC50 (Table 5 (R^4 substituted), NRVM, 72 hours, alpha-MyHC cytoblot) of 393 nM. The “Max Plateau” value (Table 5 (R^4 substituted), NRVM, 72 hours, maximum of dose response fit) is reported as 192.74 per cent fraction of low control. With `CC1=C(C(=O)OCCN)C(c2ccccc2)c2c(sc(C(=O)c3ccc(Cl)c(Cl)c3)c2N)N1` (racemic) [compound 213], it took 326 nM to reach a half-maximal effect (EC50) and the “Max Plateau” value was determined as 208.56 ± 23.45. The compound `CCC1=C(C(=O)OC(C)CC)C(c2ccccc2F)c2c(sc(C(=O)c3ccc(Cl)c(Cl)c3)c2N)N1` (single isomer, unassigned) [Compound 162] displayed an EC50 under setting [1] of 197 nM. Moreover, the “Max Plateau” value under setting [2] was 183.22 per cent fraction of low control.

For the compound `CCC1=C(C(=O)OC(C)CC)C(c2ccccc2F)c2c(sc(C(=O)c3ccc(Cl)c(Cl)c3)c2N)N1` (single isomer, unassigned) [Compound 163], a half-maximal effect under setting [1] (EC50) was put at 142 nM. Also, the “Max Plateau” value under setting [2] is reported as 224.85 per cent fraction of low control. The compound `CCC1=C(C(=O)OC(C)CC)C(c2ccccc2F)c2c(sc(C(=O)c3cccc(C#N)c3)c2N)N1` (single isomer, unassigned) [Compound 165] had a concentration giving a half-maximal response (EC50) under setting [1] of 12 nM. Under setting [2], the “Max Plateau” value is recorded as 250.83 per cent fraction of low control. In the same order, the values of `CCC1=C(C(=O)OC(C)CC)C(c2ccccc2F)c2c(sc(C(=O)c3cccc(C#N)c3)c2N)N1` (single isomer, unassigned) [Compound 166] are 33.3 nM and 219.07 per cent fraction of low control. Consider `CCC1=C(C(=O)OCCOC)C(c2ccccc2F)c2c(sc(C(=O)c3cccc(Cl)c3)c2N)N1` (single isomer, unassigned) [Compound 179], for which the “Max Plateau” value under setting [2] is recorded as 237.11 ± 19.59 per cent fraction of low control.

Consider `CCC1=C(C(=O)OCCOC)C(c2ccnc(F)c2)c2c(sc(C(=O)c3cccc(Cl)c3)c2N)N1` (single isomer, unassigned) [Compound 183], for which the “Max Plateau” value under setting [2] is 284.35 ± 38.37 per cent fraction of low control. The same measure, in the same setting: for `CCC1=C(C(=O)OCCOC)C(c2ccccc2F)c2c(sc(C(=O)c3cccc(Cl)c3)c2N)N1` (single isomer, unassigned) [Compound 187] the value was 162.93 ± 10.10 per cent fraction of low control; for `CCC1=C(C(=O)OCCOC)C(c2ccnc(F)c2)c2c(sc(C(=O)c3cccc(Cl)c3)c2N)N1` (single isomer, unassigned) [Compound 191], 263.67 ± 1.13 per cent fraction of low control.

`CC(=O)C1=C(C)Nc2sc(C(=O)c3ccc(Cl)c(Cl)c3)c(N)c2C1c1ccccc1` (centres unmarked) [Compound 2] returned an EC50 under setting [5] of 177 nM. The “Max Plateau” value under setting [6] is reported as 207.74 ± 23.00 per cent fraction of low control. Taken in the same sequence, the figures for `CC(=O)C1=C(C)Nc2sc(C(=O)c3ccccc3)c(N)c2C1c1ccccc1` (centres unmarked) [Compound 3] were 797 nM and 250.88 ± 32.62 per cent fraction of low control. Regarding `CC(=O)C1=C(C)Nc2sc(C(=O)c3cccc([N+](=O)[O-])c3)c(N)c2C1c1ccccc1Cl` (centres unmarked) [Compound 4, 1-[3-amino-4-(2-chloro-phenyl)-6-methyl-2-(3-nitro-benzoyl)-4,7dihydro-thieno[2,3-b]pyridin-5-yl]-ethanone], the “Max Plateau” value under setting [6] is listed as 244.20 ± 37.25 per cent fraction of low control. With `CC(=O)C1=C(C)Nc2sc(C(=O)c3cccnc3)c(N)c2C1c1ccccc1` (centres unmarked) [Compound 5], it took 2330 nM to reach a half-maximal effect under setting [5] (EC50). The “Max Plateau” value under setting [6] is on record as 286.43 ± 42.04 per cent fraction of low control.

As to `CC(=O)C1=C(C)Nc2sc(C(=O)c3cccc(Br)c3)c(N)c2C1c1ccccc1` (centres unmarked) [Compound 6], the EC50 under setting [5] came out at 48.9 nM. Moreover, the “Max Plateau” value under setting [6] is 289.34 ± 70.69 per cent fraction of low control. As to `CC(=O)C1=C(C)Nc2sc(C(=O)c3ccc(C)c(C)c3)c(N)c2C1c1ccccc1` (centres unmarked) [Compound 8], a half-maximal response under setting [5] (EC50) required 797 nM. Also, the “Max Plateau” value under setting [6] is given as 172.29 ± 9.66 per cent fraction of low control. For the compound `CC(=O)C1=C(C)Nc2sc(C(=O)c3cccc([N+](=O)[O-])c3)c(N)c2C1c1ccc(C(=O)O)cc1` (centres unmarked) [Compound 9], the “Max Plateau” value under setting [6] is on record as 100.00 ± 0.00 per cent fraction of low control. As for `CC(=O)C1=C(C)Nc2sc(C(=O)c3ccncc3)c(N)c2C1c1ccccc1` (centres unmarked) [Compound 10], under setting [5], the EC50 was determined as 2680 nM. Besides, the “Max Plateau” value under setting [6] is reported as 210.00 ± 36.06 per cent fraction of low control. For `CC(=O)C1=C(C)Nc2sc(C(=O)c3ccc(Cl)c(Cl)c3)c(N)c2C1c1ccccc1Cl` (centres unmarked) [Compound 13], under setting [5], the EC50 amounted to 82.5 nM. In turn, `COc1ccc(C2C(C(C)=O)=C(C)Nc3sc(C(=O)c4ccccc4)c(N)c32)cc1` (centres unmarked) [Compound 14] registered an EC50 under setting [5] of 3030 nM. Further, the “Max Plateau” value under setting [6] was 182.73 ± 26.95 per cent fraction of low control.

As for `COc1cccc(C2C(C(C)=O)=C(C)Nc3sc(C(=O)c4ccccc4)c(N)c32)c1` (centres unmarked) [Compound 15], the “Max Plateau” value under setting [6] is given as 126.50 ± 24.27 per cent fraction of low control.

For `CC(=O)C1=C(C)Nc2sc(C(=O)c3ccccn3)c(N)c2C1c1ccccc1` (centres unmarked) [Compound 16], the response under setting [5] was half-maximal at 4290 nM (EC50). In addition, the “Max Plateau” value under setting [6] is recorded as 163.33 ± 32.15 per cent fraction of low control.

Turning to `COc1ccccc1C1C(C(C)=O)=C(C)Nc2sc(C(=O)c3ccccc3)c(N)c21` (centres unmarked) [Compound 18], a half-maximal effect under setting [5] (EC50) was put at 876 nM. Besides, the “Max Plateau” value under setting [6] is reported as 215.25 ± 44.08 per cent fraction of low control. In the same order, the values of `CC(=O)C1=C(C)Nc2sc(C(=O)c3ccccc3)c(N)c2C1c1ccncc1` (centres unmarked) [Compound 19] are 3390 nM and 260.00 ± 36.06 per cent fraction of low control.

`CC(=O)C1=C(C)Nc2sc(C(=O)c3ccccc3)c(N)c2C1c1cccnc1` (centres unmarked) [Compound 20]: the “Max Plateau” value under setting [6] is given as 127.35 ± 23.71 per cent fraction of low control. In turn, `CC(=O)C1=C(C)Nc2sc(C(=O)c3ccccc3)c(N)c2C1c1ccc(Cl)cc1` (centres unmarked) [Compound 21] showed an EC50 under setting [5] of 583 nM. Besides, the “Max Plateau” value under setting [6] is 193.20 ± 49.26 per cent fraction of low control.

For the origin of these results see US20110105496A1, “Methods For The Treatment Of Myosin Heavy Chain-Mediated Conditions Using 4,7-Dihydrothieno[2,3-B]Pyridine Compounds” (priority 2005, published 2011).
